Values quoted from earlier work as cited in patent US20110237925A1, “MICRONEEDLE ARRAY CHIP, DEVICE AND PATCH FOR TRANSDERMAL DRUG DELIVERY UTILIZING THE SAME, AND PREPARATION METHOD THEROF” (priority 2010, published 2011).

Conditions: solid silicon microneedle array prepared through MEMS technology

SMILES: O=C(O)CN(CC(=O)O)Cc1cc2c(cc1O)Oc1cc(O)c(CN(CC(=O)O)CC(=O)O)cc1C21OC(=O)c2ccccc21 [calcein]
- increase of the transdermal permeability: four orders of magnitude
